Data reported in patent publication EP3381909A1, “NEW TRIAZINE SUBSTANCE FOR USE IN THE TREATMENT OF CANCER, SPECIFICALLY IN THE TREATMENT OF NON-SMALL CELL CANCER, AND PHARMACEUTICAL COMPOSITION COMPRISING SAID SUBSTANCE” (Universite de Nantes, priority 2017, dated 2018).
Like-named read-outs stand apart in the source and are kept apart here.

Tests used:
[1] = system: NSCLC-N6-L16 cells synchronised in M phase; assay: Gene expression by quantitative real-time RT-PCR in cells synchronised in M phase; type: cell-based, human
Source text: (§1) During the mitosis, cell shape and adhesion are radically changed. Indeed, this phase induces a depolymerization of the microtubules, a loss of the cytoskeleton and consequently a decrease of the adhesion to the support. […] It is thus easy to isolate these cells by a slight agitation of the culture medium in order to remove and suspend the cells. The cells are then recovered by slow centrifugation and replaced in a new culture flask.
(§2) Total RNA was extracted from NSCLC-N6-L16 and A549 cell lines using the Dynabeads® mRNA DirectTM Kit (Ambion by Life Technologies). The isolation protocol relies on base pairing between the polyA residues at the 3' end of most mRNA and the oligo (dT) residues covalently coupled to the surface of the Dynabeads®. The quality and concentration of purified RNA were assessed using UV absorbance at 260/280 nm and samples were run on 1% agarose gel in order to assess their quality. RNA was stored at - 80 °C.
RT was carried out with 1 µg of RNA in 10 µL with 0.125 µg/µL random primers and RNase-free water. This mixture was denatured at 65°C for 10 min then kept on ice. Subsequently, it was completed to a final volume of 25 µL with a mix containing 8 mM of dNTP mix, 1X of M- MLV 5X reaction buffer, 25 units of recombinant RNasin ribonuclease inhibitor (Promega), and 200 units of M-MLV RT (Promega) and RNase-free water. In order to check whether the samples were contaminated by genomic DNA, the same mix was made with RNA without the reverse transcriptase. Following this step, samples were incubated for 2 h at 37°C. cDNAs were stored at -20°C. After reverse transcription, cDNAs were used as a template for specific qPCR.
Real-time RT-PCR was carried out in a final volume of 25 µL with 1µL 1:20 dilution of diluted cDNA mixture, 10 pmol gene-specific forward and 10 pmol reverse primer in 1X SYBR Green PCR master mix (Eurogentec) with the following protocol: 15 s at 95 °C for denaturation, 30 s at 60°C for annealing and extension on a ABI Prism Sequence Detection System 5700 (Applied Biosystems). The primers were designed using Primer 3 (http://frodo.wi.mit.edu/). All primer sequences were controlled with a dimers finder to reduce the risk of unspecific hybridization of Sybr-green (Operon oligo toolkit: see https://www.operon.com(oligos/toolkit.php).
The relative expression of each gene was normalized to that of human β-actin: forward 5'-[…]-3' (SEQ ID NO: 13), reverse 5'-[…]-3' (SEQ ID NO: 14) (10 mM, Sigma Genosys). Normalization was carried out using the ΔΔCt method. Non-template control sample was used for each PCR to check the genomic DNA contaminations of the cDNA template. Analysis of the results was carried out using GenAmp 5700 SDS (Applied Biosystems) software.
The expression of four genes of interests were studied in the cell line NSCLC-N6-L16: HEF1, p53, C3G and FAK. It was carried out by RT-QPCR on the synchronized cells not treated (dark histograms) or treated (grey histograms) by A240 at the IC50. The study was performed between 10 and 17 hours in order to follow the gene expression with an extraction every hour.

NSCLC-N6-L16 [2] = assay: Continuous drug exposure growth kinetics over 72 h; type: cell-based, human; conditions: for "plateau" of cytostatic type, time of treatment after which it is visible: NSCLC-N6-L16, highest doses, A190: 104.9 µM, 78.9 µM, A204: 8.4 µM, 5.6 µM
Protocol: (§3) Experiments were performed in 96-well microtiter plates (10^5 cells/mL for NSCLC-N6-L16 and 2X10^4 cells/mL for A549). Cell growth was estimated by a colorimetric assay based on the conservation of tetrazolium dye (MTT) to a blue formazan product by live mitochondria. Eight repeats were performed for each concentration. Control growth was estimated from 8 determinations. Optical density at 570 nm corresponding to solubilized formazan was read for each well on a Titertek Multiskan MKII.
(§4) The kinetics were carried out on the two cell lines NSCLC-N6-L16 and A549 over a time of 72 h. The results are presented in the graphs of figures 1 to 4 representing the cell growth as a function of time. One of the curves represents the cell growth control; the others correspond to the different concentrations tested. The latter are chosen according to the IC50 in order to surround it at best (Table 3).

A549 [3] = assay: Cytotoxicity determination, continuous drug exposure (MTT colorimetric assay); type: cell-based; conditions: for IC50: Homo sapiens, A549 cell line, MTT, read-out: IC50: Half maximal inhibitory concentration
Protocol: (§5) A549 and NSCLC-N6 cell lines were used for all experiments. They were obtained respectively from an adenocarcinoma and an epidermoid lung cancer. The NSCLC-N6-L16 cell line was derived from a human non-small-cell bronchopulmonary carcinoma (moderately differentiated, classified as T2N0M0). The A549 was obtained from the ATCC collection (reference CCL-185) and is known to have a wild type p53 gene, while NSCLC-N6 has a mutant p53 gene, similar to the in situ tumors.
(§6) Both cell lines were cultured in RPMI-1640 medium with 5% fetal bovine serum, to which were added 100 IU penicillin/ml, 100 µg/mL streptomycin and 2 mM glutamine at 37°C in an air/carbon dioxide (95:5, v/v) atmosphere. The NSCLC-N6-L16 cell line is a model which never exceeded 35 passages in all experiments. Then this model stays very close to the original tumor.
as §3

NSCLC-N6-L16 [4] = assay: as above; type: cell-based; conditions: Homo sapiens, read-out: IC50: Half maximal inhibitory concentration
Protocol: as §5, §6, §3

[5] = system: A549 cells synchronised in M phase; assay: Gene expression by quantitative real-time RT-PCR in cells synchronised in M phase; type: cell-based; conditions: A549, at 17 hours; treated at the IC50 (figure legend: 39.4µM)
Source text: as §1, §2
RT was carried out with 1 µg of RNA in 10 µL with 0.125 µg/µL random primers and RNase-free water. This mixture was denatured at 65°C for 10 min then kept on ice. Subsequently, it was completed to a final volume of 25 µL with a mix containing 8 mM of dNTP mix, 1X of M- MLV 5X reaction buffer, 25 units of recombinant RNasin ribonuclease inhibitor (Promega), and 200 units of M-MLV RT (Promega) and RNase-free water. […]

A549 [6] = assay: Continuous drug exposure growth kinetics over 72 h; type: cell-based; conditions: for cell growth (proliferation) versus time: A549, 72 h kinetics
Protocol: as §3, §4

synchronized cells = assay: Activity kinetics on synchronized cells (data not shown); type: cell-based
Source text: as §1
It was observed that the cell doubling time of the cell line NSCLC-N6-L16 is about 17 hours and 22-23 hours for A549. Indeed, the molecule A204 act on different genes such as HEF1, the expression of which is variable along the cell cycle.

[7] = system: A549 cells synchronised in M phase; conditions: after 17 hours of treatment, previous work; cited from earlier work
mutant p53, NEDD9 gene = conditions: Rousseau et al., Sci. Rep. 5, 10556, 2015; cited from earlier work

Compound: NC1=NC(C23CC4CC(CC(C4)C2)C3)N(Cc2ccc(Cl)cc2)C(N)=N1 (centres unmarked) [A204, 4,6-diamino-1,2-dihydro-1-(4"-chlorobenzyl)-2-(1-tricyclo [3.3.1.1,4]decyl)-1,3,5-triazine]
- expression of gene P53 ([1]; 10 to 17 hours, treated vs control): clearly shows an influence of the treatment on the expression
- time of action compared with A190 ([1]; NSCLC-N6-L16, same cytostatic effect, relative to A190): three hours earlier
- expression of gene C3G ([1]; at 17 hours (G2 / M phase)): collapse
- expression of gene HEF1 ([1]; at around 12 hours, treated at the IC50 (figure legend: 39.4µM) vs control): highly overexpressed
- expression of gene C3G ([1]; between 11 and 13 hours (end of G1 phase)): widely overexpressed
- expression of gene FAK ([1]; between 12 and 16 hours (phase of synthesis)): decreased expression
- expression of gene HEF1 ([1]; between 13 and 15 hours): collapses
- expression of gene C3G ([1]; between 13 and 16h): goes up gradually
- expression of gene HEF1 ([1]; between 15 and 17 hours (G2 / M phase)): relatively close to the level of the control cells
- "plateau" of cytostatic type, time of treatment after which it is visible (NSCLC-N6-L16 [2]): > 48 h
- IC50 / amount required compared with A190 (A549 [3]; A549, relative to A190): seven times less
- IC50 (A549 [3]): 9.7 ± 0.7 µM
- IC50 (NSCLC-N6-L16 [4]): 5.01 ± 0.5 µM
- expression of gene AKT [5]: overexpression
- expression of gene PI3K [5]: overexpression
- cell growth (proliferation) versus time (A549 [6]): follow perfectly that of the control cells
- time at which the effect of the treatment is beginning (synchronized cells): around 30 hours

Compound: NC1=NC(C23CC4CC(CC(C4)C2)C3)N(c2ccc(Cl)cc2)C(N)=N1 (centres unmarked) [A190]
- cell growth (proliferation) versus time (NSCLC-N6-L16 [2]; NSCLC-N6-L16, 72 h kinetics): reduced for both cell lines in a dose-dependent manner
- cytostatic activity since (concentration) (NSCLC-N6-L16 [2]; NSCLC-N6-L16, continuous exposure): ≥ 26.3 µM
- "plateau" of cytostatic type, time of treatment after which it is visible (NSCLC-N6-L16 [2]): > 48 h
- IC50 (A549 [3]): 71 ± 1.2 µM
- IC50 (NSCLC-N6-L16 [4]): 24.1 ± 2.2 µM
- cell growth (proliferation) versus time (A549 [6]): reduced for both cell lines in a dose-dependent manner
- cytostatic activity since (concentration) (A549 [6]; A549, continuous exposure): ≥ 26.3 µM
- plateau of cytostatic type, time of treatment after which it is visible (A549 [6]; A549, A190 at 104.9, 78.9, 52.6, 26 µM): > 48 h
- expression of gene AKT [7]: overexpression
- expression of gene PI3K [7]: overexpression
- expression of the NEDD9 gene (mutant p53, NEDD9 gene): overexpression
- mutant p53 activity (mutant p53, NEDD9 gene): restores mutant p53 activity
